In brackets after ≈: the same amount, converted by molar mass. Read-outs that look alike come from different tables or passages of the source.
Assays:
A. baumannii = test: MIC, broth microdilution, CDC/FDA Antibiotic Resistance Isolate Bank (Example 7, Tables 9, 13, 14); type: cell-based, Acinetobacter baumannii; conditions: for MIC: Acinetobacter baumannii, read-out: MIC
53 CRE and CPE strains = test: MICrange, MIC50, MIC80, MIC90 for 53 bacterial isolates (Example 5, Table 5); type: cell-based; conditions: 53 bacterial isolates
P. aeruginosa = test: MIC, broth microdilution, CDC/FDA Antibiotic Resistance Isolate Bank (Example 7, Tables 10, 15); type: cell-based; conditions: for MIC: Pseudomonas aeruginosa, read-out: MIC
[1] = MIC distribution, metallo-β-lactamase-producing A. baumannii, inhibitor µg/mL in parentheses

C[C@H]1[C@H](NC(=O)/C(=N\OC(C)(C)C(=O)O)c2csc(N)n2)C(=O)N1S(=O)(=O)O [Aztreonam, aztreonam]
MIC (A. baumannii; A. baumannii KUB No. 5585, AR Bank #88, OXA-64, NDM-1): 32 µg/mL (≈ 73.5 µM)
MIC (A. baumannii; A. baumannii KUB No. 5714, AR Bank #281, OXA-82): 32 µg/mL (≈ 73.5 µM)
MIC (A. baumannii; KUB No. 5719, AR Bank #286): 32 µg/mL (≈ 73.5 µM)
MIC (A. baumannii; KUB No. 5720, AR Bank #287): 32 µg/mL (≈ 73.5 µM)
MIC (A. baumannii; KUB No. 5727, AR Bank #294): 32 µg/mL (≈ 73.5 µM)
Number of isolates at MIC 32 µg/mL (A. baumannii; [1]): 1
Number of isolates at MIC >64 µg/mL (A. baumannii; [1]): 3
MIC80 (53 CRE and CPE strains; read-out: MIC80): > 64 µg/mL
MIC90 (53 CRE and CPE strains; read-out: MIC90): > 64 µg/mL
MIC against 26 metallo-carbapenemase-producing strains MIC50 (P. aeruginosa; 26 metallo-carbapenemase-producing P. aeruginosa strains, β-lactamase inhibitor µg/mL in parentheses): 16 µg(mL)
MIC against 96 strains of P. aeruginosa MIC50 (P. aeruginosa; 96 strains of P. aeruginosa, β-lactamase inhibitor µg/mL in parentheses): 16 µg(mL)
MIC (P. aeruginosa; P. aeruginosa KUB No. 579, AR Bank # 447): 4 µg/mL (≈ 9.19 µM)
MIC (P. aeruginosa; P. aeruginosa KUB No. 5551, AR Bank # 54): 32 µg/mL (≈ 73.5 µM)
MIC (P. aeruginosa; P. aeruginosa KUB No. 5561, AR Bank # 64): 16 µg/mL (≈ 36.7 µM)
MIC (P. aeruginosa; P. aeruginosa KUB No. 5592, AR Bank # 95): 16 µg/mL (≈ 36.7 µM)
MIC (P. aeruginosa; P. aeruginosa KUB No. 5597, AR Bank # 100): 32 µg/mL (≈ 73.5 µM)
MIC (P. aeruginosa; P. aeruginosa KUB No. 5600, AR Bank # 103): 16 µg/mL (≈ 36.7 µM)
MIC (P. aeruginosa; P. aeruginosa KUB No. 5602, AR Bank # 105): 32 µg/mL (≈ 73.5 µM)
MIC (P. aeruginosa; P. aeruginosa KUB No. 5605, AR Bank # 108): 8 µg/mL (≈ 18.4 µM)
MIC (P. aeruginosa; P. aeruginosa KUB No. 5607, AR Bank # 110): 4 µg/mL (≈ 9.19 µM)
MIC (P. aeruginosa; P. aeruginosa KUB No. 5608, AR Bank # 111): 2 µg/mL (≈ 4.59 µM)
MIC (P. aeruginosa; P. aeruginosa KUB No. 5663, AR Bank # 230): 4 µg/mL (≈ 9.19 µM)
MIC (P. aeruginosa; P. aeruginosa KUB No. 5665, AR Bank # 232): 4 µg/mL (≈ 9.19 µM)
MIC (P. aeruginosa; P. aeruginosa KUB No. 5666, AR Bank # 23): 16 µg/mL (≈ 36.7 µM)
MIC (P. aeruginosa; P. aeruginosa KUB No. 5667, AR Bank # 234): 2 µg/mL (≈ 4.59 µM)
MIC (P. aeruginosa; P. aeruginosa KUB No. 5669, AR Bank # 236): 2 µg/mL (≈ 4.59 µM)
MIC (P. aeruginosa; P. aeruginosa KUB No. 5670, AR Bank # 237): 4 µg/mL (≈ 9.19 µM)
MIC (P. aeruginosa; P. aeruginosa KUB No. 5671, AR Bank # 238): 4 µg/mL (≈ 9.19 µM)
MIC (P. aeruginosa; P. aeruginosa KUB No. 5672, AR Bank # 239): 32 µg/mL (≈ 73.5 µM)
MIC (P. aeruginosa; P. aeruginosa KUB No. 5673, AR Bank # 240): 32 µg/mL (≈ 73.5 µM)
MIC (P. aeruginosa; P. aeruginosa KUB No. 5674, AR Bank # 241): 32 µg/mL (≈ 73.5 µM)
MIC (P. aeruginosa; P. aeruginosa KUB No. 5675, AR Bank # 242): 4 µg/mL (≈ 9.19 µM)
MIC (P. aeruginosa; P. aeruginosa KUB No. 5676, AR Bank # 243): 2 µg/mL (≈ 4.59 µM)
MIC (P. aeruginosa; P. aeruginosa KUB No. 5677, AR Bank # 244): 32 µg/mL (≈ 73.5 µM)
MIC (P. aeruginosa; P. aeruginosa KUB No. 5678, AR Bank # 245): 16 µg/mL (≈ 36.7 µM)
MIC (P. aeruginosa; P. aeruginosa KUB No. 5680, AR Bank # 247): 4 µg/mL (≈ 9.19 µM)
MIC (P. aeruginosa; P. aeruginosa KUB No. 5681, AR Bank # 248): 4 µg/mL (≈ 9.19 µM)
MIC (P. aeruginosa; P. aeruginosa KUB No. 5682, AR Bank # 249): 32 µg/mL (≈ 73.5 µM)
MIC (P. aeruginosa; P. aeruginosa KUB No. 5684, AR Bank # 251): 32 µg/mL (≈ 73.5 µM)
MIC (P. aeruginosa; P. aeruginosa KUB No. 5685, AR Bank # 252): 32 µg/mL (≈ 73.5 µM)
MIC (P. aeruginosa; P. aeruginosa KUB No. 5686, AR Bank # 253): 16 µg/mL (≈ 36.7 µM)
MIC (P. aeruginosa; P. aeruginosa KUB No. 5687, AR Bank # 254): 4 µg/mL (≈ 9.19 µM)
MIC (P. aeruginosa; P. aeruginosa KUB No. 5688, AR Bank # 255): 8 µg/mL (≈ 18.4 µM)
MIC (P. aeruginosa; P. aeruginosa KUB No. 5689, AR Bank # 256): 4 µg/mL (≈ 9.19 µM)
MIC (P. aeruginosa; P. aeruginosa KUB No. 5690, AR Bank # 257): 8 µg/mL (≈ 18.4 µM)
MIC (P. aeruginosa; P. aeruginosa KUB No. 5691, AR Bank # 258): 4 µg/mL (≈ 9.19 µM)
MIC (P. aeruginosa; P. aeruginosa KUB No. 5692, AR Bank # 259): 4 µg/mL (≈ 9.19 µM)
MIC (P. aeruginosa; P. aeruginosa KUB No. 5693, AR Bank # 260): 8 µg/mL (≈ 18.4 µM)
MIC (P. aeruginosa; P. aeruginosa KUB No. 5694, AR Bank # 261): 4 µg/mL (≈ 9.19 µM)
MIC (P. aeruginosa; P. aeruginosa KUB No. 5695, AR Bank # 262): 16 µg/mL (≈ 36.7 µM)
MIC (P. aeruginosa; P. aeruginosa KUB No. 5696, AR Bank # 263): 2 µg/mL (≈ 4.59 µM)
MIC (P. aeruginosa; P. aeruginosa KUB No. 5697, AR Bank # 264): 2 µg/mL (≈ 4.59 µM)
MIC (P. aeruginosa; P. aeruginosa KUB No. 5698, AR Bank # 265): 8 µg/mL (≈ 18.4 µM)
MIC (P. aeruginosa; P. aeruginosa KUB No. 5699, AR Bank # 266): 4 µg/mL (≈ 9.19 µM)
MIC (P. aeruginosa; P. aeruginosa KUB No. 5700, AR Bank # 267): 4 µg/mL (≈ 9.19 µM)
MIC (P. aeruginosa; P. aeruginosa KUB No. 5701, AR Bank # 268): 32 µg/mL (≈ 73.5 µM)
MIC (P. aeruginosa; P. aeruginosa KUB No. 5702, AR Bank # 269): 16 µg/mL (≈ 36.7 µM)
MIC (P. aeruginosa; P. aeruginosa KUB No. 5703, AR Bank # 270): 2 µg/mL (≈ 4.59 µM)
MIC (P. aeruginosa; P. aeruginosa KUB No. 5704, AR Bank # 271): 16 µg/mL (≈ 36.7 µM)
MIC (P. aeruginosa; P. aeruginosa KUB No. 5705, AR Bank # 272): 4 µg/mL (≈ 9.19 µM)
MIC (P. aeruginosa; P. aeruginosa KUB No. 5749, AR Bank # 353): 8 µg/mL (≈ 18.4 µM)
MIC (P. aeruginosa; P. aeruginosa KUB No. 5750, AR Bank # 354): 16 µg/mL (≈ 36.7 µM)
MIC (P. aeruginosa; P. aeruginosa KUB No. 5754, AR Bank # 358): 32 µg/mL (≈ 73.5 µM)
MIC (P. aeruginosa; P. aeruginosa KUB No. 5755, AR Bank # 359): 32 µg/mL (≈ 73.5 µM)
MIC (P. aeruginosa; P. aeruginosa KUB No. 5756, AR Bank # 360): 16 µg/mL (≈ 36.7 µM)
MIC (P. aeruginosa; P. aeruginosa KUB No. 5785, AR Bank # 439): 4 µg/mL (≈ 9.19 µM)
MIC (P. aeruginosa; P. aeruginosa KUB No. 5786, AR Bank # 440): 32 µg/mL (≈ 73.5 µM)
MIC (P. aeruginosa; P. aeruginosa KUB No. 5789, AR Bank # 444): 8 µg/mL (≈ 18.4 µM)
MIC (P. aeruginosa; P. aeruginosa KUB No. 5800, AR Bank # 457): 32 µg/mL (≈ 73.5 µM)
MIC (P. aeruginosa; P. aeruginosa KUB No. 5805, AR Bank # 863): 16 µg/mL (≈ 36.7 µM)
MIC (P. aeruginosa; P. aeruginosa KUB No. 5813, AR Bank # 508): > 0.064 µg/mL
MIC (P. aeruginosa; P. aeruginosa KUB No. 5814, AR Bank # 509): 0.008 µg/mL (≈ 0.0184 µM)
MIC (P. aeruginosa; P. aeruginosa KUB No. 5815, AR Bank # 510): 0.0005 µg/mL (≈ 0.00115 µM)
MIC (P. aeruginosa; P. aeruginosa KUB No. 5816, AR Bank # 511): 0.004 µg/mL (≈ 0.00919 µM)
MIC (P. aeruginosa; P. aeruginosa KUB No. 5817, AR Bank # 512): 0.032 µg/mL (≈ 0.0735 µM)
MIC (P. aeruginosa; P. aeruginosa KUB No. 5818, AR Bank # 513): 0.032 µg/mL (≈ 0.0735 µM)
MIC (P. aeruginosa; P. aeruginosa KUB No. 5819, AR Bank # 514): 0.004 µg/mL (≈ 0.00919 µM)
MIC (P. aeruginosa; P. aeruginosa KUB No. 5820, AR Bank # 515): 0.032 µg/mL (≈ 0.0735 µM)
MIC (P. aeruginosa; P. aeruginosa KUB No. 5821, AR Bank # 516): > 0.064 µg/mL
MIC (P. aeruginosa; P. aeruginosa KUB No. 5823, AR Bank # 518): > 0.064 µg/mL
MIC (P. aeruginosa; P. aeruginosa KUB No. 5831, AR Bank # 526): 0.004 µg/mL (≈ 0.00919 µM)
MIC (P. aeruginosa; P. aeruginosa KUB No. 5832, AR Bank # 527): 0.032 µg/mL (≈ 0.0735 µM)
MIC (P. aeruginosa; P. aeruginosa KUB No. 5834, AR Bank # 529): 0.008 µg/mL (≈ 0.0184 µM)

From EP4635500A1, “THERAPEUTIC AGENT FOR BACTERIAL INFECTION” (Sumitomo Pharma Co., Ltd., priority 2022, dated 2024)
